Like-named read-outs stand apart in the source and are kept apart here.
Assays:
[1] = system: convulsions induced by AMPA; experiment: Anticonvulsant action induced by AMPA; format: in vivo, mice of ddy strain; settings: 25 mg/kg orally, male ddy mice; AMPA continuously injected into lateral ventricle 30 minutes or 1 hour after
Description: A test compound was suspended in a 0.5% methyl cellulose solution or in sesame oil and was orally administered (25 mg/kg) to male mice of ddy strain. After 30 minutes or 1 hour from the oral administration, AMPA was continuously injected ([…]/5 μl/minute/mouse) into lateral ventricle to induce the convulsions. The effect was judged by a time-extending action until the convulsion takes place by a continuous injection of AMPA.

[2] = system: experimental autoimmune encephalomyelitis; experiment: Experimental autoimmune encephalomyelitis model; format: in vivo; settings: p.o. 5, 10 and 20 mg/kg, 10-16 days post immunisation, female Lewis rats, versus vehicle
Description: Female Lewis rats (205±10 g) obtained from Charles River, Kent UK, were housed in pairs under environmentally controlled conditions (6:00 a.m.-6:00 p.m. light/dark cycle; 22-24° C.; 45-55% humidity) and allowed free access to food and water. Experimental groups consisted of 9-12 animals. Rats were immunised in each hind foot with 20-50 μl of inoculum containing 50 μg guinea pig myelin basic protein (MBP; final concentration 2 mg/ml), emulsified in Freund's complete adjuvant (CFA; Sigma, UK) containing Mycobacterium tuberculosis H37Ra (final concentration 5.5 mg/ml; Difco Laboratories, UK). Animals were weighed and monitored daily and clinical disease scored as (O) no clinical signs; (1) flaccid tail and weight loss; (2) hind limb hypotonia with further weight loss; (3) complete hind limb paralysis; (4) paraplegia and (5) death. […] During the period of compound administration (10-16 days post immunisation; dpi) animals were scored 15 h after injection of vehicle or compound to avoid any acute effect of treatment on disease score. Compounds were dissolved/suspended in 0.5% methyl cellulose using a hand held Polytron homogeniser (PT1200; 2 min). Rats were dosed p.o. with either methyl cellulose vehicle (2.5 ml/kg) or compound at 5, 10 and 20 mg/kg. Results: the compound of the invention is improved in view of experimental autoimmune encephalomyelitis.

[3] = Table 2, suppression of AMPA-induced calcium influx into nerve cells
[4] = Table 1, primary culture of rat embryo cerebral cortex nerve cells, 2 μM AMPA, 1 μM MK-801
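For IC50 in this document: primary rat embryonic cortical neurons grown on an astrocyte layer in 96-well plates, used after at least 8 to 10 days in culture, Fura2-AM fluorescence ratio at 340/380 nm excitation.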

Structure (SMILES) | IC50 (AMPA receptor; [3]) | anticonvulsant action (time-extending action until the convulsion takes place) [1] | effect on experimental autoimmune encephalomyelitis (clinical disease score) [2] | IC50 (AMPA receptor; [4]) | IC50 (AMPA receptor; Table 3, primary culture of rat embryo cerebral cortex nerve cells, 2 μM AMPA, 1 μM MK-801)
N#Cc1ccccc1-c1cc(-c2cccc(N)n2)cn(-c2ccccc2)c1=O [Example 298, 5-(2-Aminopyridin-6-yl)-3-(2-cyanophenyl)-1-phenyl-1,2-dihydropyridin-2-one] | 300 nM | significant anticonvulsant action | – | – | –
O=c1c(-c2cccnc2F)cc(-c2ccccn2)cn1-c1cccnc1 [Example 139, 3-(2-Fluoro-3-pyridyl)-5-(2-pyridyl)-1-(3-pyridyl)-1,2-dihydropyridin-2-one] | 300 nM | significant anticonvulsant action | superior effect to the vehicle-administered group | – | –
N#Cc1ccccc1-c1cc(-c2ccccn2)cn(-c2ccccc2)c1=O [Example 7, 3-(2-Cyanophenyl)-5-(2-pyridyl)-1-phenyl-1,2-dihydropyridin-2-one] | – | significant anticonvulsant action | superior effect to the vehicle-administered group | 100 nM | –
N#Cc1ccccc1-c1cc(-c2ccccn2)cn(-c2cccc(N)c2)c1=O [Example 9, 3-(2-Cyanophenyl)-5-(2-pyridyl)-1-(3-aminophenyl)-1,2-dihydropyridin-2-one] | – | significant anticonvulsant action | – | 30 nM | –
N#Cc1ccccc1-c1cc(-c2ncccn2)cn(-c2cccnc2)c1=O [Example 261, 3-(2-Cyanophenyl)-1-(3-pyridyl)-5-(2-pyrimidinyl)-1,2-dihydropyridin-2-one] | 80 nM | significant anticonvulsant action | superior effect to the vehicle-administered group | – | –
N#Cc1ccccc1-c1cc(-c2ncccn2)cn(-c2ccccc2)c1=O [Example 164, 3-(2-Cyanophenyl)-1-phenyl-5-(2-pyrimidinyl)-1,2-dihydropyridin-2-one] | 80 nM | significant anticonvulsant action | superior effect to the vehicle-administered group | – | –
O=c1c(-c2ccccc2)cc(-c2ccccn2)cn1-c1ccccc1 [Example 61, 3-Phenyl-5-(2-pyridyl)-1-phenyl-1,2-dihydropyridin-2-one] | – | significant anticonvulsant action | – | 200 nM | –
N#Cc1ccccc1-c1cc(-c2ccccn2)cn(-c2ccc(F)cc2)c1=O [Example 91, 3-(2-Cyanophenyl)-5-(2-pyridyl)-1-(4-fluorophenyl)-1,2-dihydropyridin-2-one] | – | significant anticonvulsant action | – | 50 nM | –
COc1ccccc1-n1cc(-c2ccccn2)cc(-c2ccccc2C#N)c1=O [Example 126, 3-(2-Cyanophenyl)-5-(2-pyridyl)-1-(2-methoxyphenyl)-1,2-dihydropyridin-2-one] | – | significant anticonvulsant action | – | 300 nM | –
O=c1c(-c2cccnc2Cl)cc(-c2ccccn2)cn1-c1ccccc1 [Example 4, 3-(2-Chloro-3-pyridyl)-5-(2-pyridyl)-1-phenyl-1,2-dihydropyridin-2-one] | – | significant anticonvulsant action | – | 100 nM | –
N#Cc1ncccc1-c1cc(-c2ccccn2)cn(-c2ccccc2)c1=O [Example 16, 3-(2-Cyano-3-pyridyl)-5-(2-pyridyl)-1-phenyl-1,2-dihydropyridin-2-one] | – | significant anticonvulsant action | – | 100 nM | –
N#Cc1ccccc1-c1cc(-c2ccccc2)cn(-c2ccccc2)c1=O [Example 41, 3-(2-Cyanophenyl)-1,5-diphenyl-1,2-dihydropyridin-2-one] | – | significant anticonvulsant action | – | 80 nM | –
N#Cc1ccccc1-c1cc(-c2ccccn2)cn(-c2cccnc2)c1=O [Example 32, 3-(2-Cyanophenyl)-5-(2-pyridyl)-1-(3-pyridyl)-1,2-dihydropyridin-2-one] | – | significant anticonvulsant action | superior effect to the vehicle-administered group | 100 nM | –
N#Cc1sccc1-c1cc(-c2ccccn2)cn(-c2cccnc2)c1=O [Example 137, 3-(2-Cyanothiophen-3-yl)-5-(2-pyridyl)-1-(3-pyridyl)-1,2-dihydropyridin-2-one] | 50 nM | significant anticonvulsant action | – | – | –
O=c1c(-c2cccnc2F)cc(-c2ncccn2)cn1-c1ccccc1 [Example 262, 3-(2-Fuluoropyridin-3-yl)-1-phenyl-5-(2-pyrimidinyl)-1,2-dihydropyridin-2-one] | 300 nM | significant anticonvulsant action | superior effect to the vehicle-administered group | – | –
N#Cc1ccccc1-c1cc(-c2ccccc2)cn(-c2cccnc2)c1=O [Example 47, 3-(2-Cyanophenyl)-5-phenyl-1-(3-pyridyl)-1,2-dihydropyridin-2-one] | – | significant anticonvulsant action | – | 600 nM | –
O=c1c(-c2ccccc2Cl)cc(-c2ccccn2)cn1-c1ccccc1 [Example 57, 3-(2-Chlorophenyl)-5-(2-pyridyl)-1-phenyl-1,2-dihydropyridin-2-one] | – | significant anticonvulsant action | – | 200 nM | –
O=c1c(-c2ccccc2Cl)cc(-c2ccccn2)cn1-c1cccnc1 [Example 128, 3-(2-Chlorophenyl)-5-(2-pyridyl)-1-(3-pyridyl)-1,2-dihydropyridin-2-one] | – | significant anticonvulsant action | – | 70 nM | –
CN(C)c1cccc(-n2cc(-c3ccccn3)cc(-c3ccccc3C#N)c2=O)c1 [Example 12, 3-(2-Cyanophenyl)-5-(2-pyridyl)-1-(3-dimethylaminophenyl)-1,2-dihydropyridin-2-one] | – | significant anticonvulsant action | – | 100 nM | –
O=c1c(-c2ccccc2[N+](=O)[O-])cc(-c2ccccn2)cn1-c1ccccc1 [Example 270, 3-(2-Nitrophenyl)-1-phenyl-5-(2-pyridyl)-1,2-dihydropyridin-2-one] | 140 nM | significant anticonvulsant action | – | – | –
N#Cc1cccc(-c2cc(-c3ccccn3)cn(-c3ccccc3)c2=O)n1 [Example 78, 3-(6-Cyano-2-pyridyl)-5-(2-pyridyl)-1-phenyl-1,2-dihydropyridin-2-one] | – | significant anticonvulsant action | – | 1400 nM | –
N#Cc1ccccc1-c1cc(-c2cnccn2)cn(-c2ccccc2)c1=O [Example 199, 3-(2-Cyanophenyl)-1-phenyl-5-(2-pyrazyl)-1,2-dihydropyridin-2-one] | 700 nM | significant anticonvulsant action | – | – | –
N#Cc1ccccc1-c1cc(-c2ccccn2)cn(-c2cccc(CN3CCCC3)c2)c1=O [Example 250, 3-(2-Cyanophenyl)-1-[3-(pyrrolidinomethyl)phenyl]-5-(2-pyridyl)-1,2-dihydropyridin-2-one] | 900 nM | – | – | – | –
O=C(c1cc(-c2ccccc2)c(=O)n(-c2ccccc2)c1)c1ccccn1 [Example 395, 5-(2-Pyridinecarbonyl)-1-phenyl-3-phenyl-1,2-dihydropyridin-2-one] | – | – | – | – | 900 nM
O=c1c(-c2cccc3ccccc23)cc(-c2ccccn2)cn1-c1ccccc1 [Example 280, 3-(1-Naphthyl)-5-(2-pyridyl)-1-phenyl-1,2-dihydropyridin-2-one] | 1300 nM | – | – | – | –
O=c1c(-c2cncnc2)cc(-c2ccccn2)cn1-c1ccccc1 [Example 257, 1-Phenyl-3-(5-pyrimidinyl)-5-(2-pyridyl)-1,2-dihydropyridin-2-one] | 3700 nM | – | – | – | –
COc1cccc(-c2cc(-c3ccccn3)cn(-c3ccccc3)c2=O)n1 [Example 260, 3-(2-Methoxypyridin-6-yl)-1-phenyl-5-(2-pyridyl)-1,2-dihydropyridin-2-one] | 2700 nM | – | – | – | –
